Experimental data as given in PubChem BioAssay (NCI).
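Cultured in 96-well plates, cells were exposed to test compound for 48 hours across five concentrations. GI50 marks 50% less growth. At the TGI there is no net growth.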

How the values were obtained:
Assay in all cases: NCI anticancer screen, dose series, 48 h
786-0 renal = tested on: 786-0 renal
SK-MEL-28 melanoma = tested on: SK-MEL-28 melanoma
SK-MEL-5 melanoma = tested on: SK-MEL-5 melanoma
SN12C renal = tested on: SN12C renal
UACC-257 melanoma = tested on: UACC-257 melanoma
BT-549 breast = tested on: BT-549 breast
HCT-116 colon = tested on: HCT-116 colon
T-47D breast = tested on: T-47D breast
LOX IMVI melanoma = tested on: LOX IMVI melanoma
MALME-3M melanoma = tested on: MALME-3M melanoma
COLO 205 colon = tested on: COLO 205 colon
HL-60(TB) leukemia = tested on: HL-60(TB) leukemia
HS 578T breast = tested on: HS 578T breast
NCI-H226 lung = tested on: NCI-H226 lung
SF-295 CNS = tested on: SF-295 CNS
HOP-92 NSCLC = tested on: HOP-92 NSCLC
OVCAR-4 ovarian = tested on: OVCAR-4 ovarian
HCC-2998 colon = tested on: HCC-2998 colon
RXF 393 renal = tested on: RXF 393 renal
OVCAR-5 ovarian = tested on: OVCAR-5 ovarian
SF-268 CNS = tested on: SF-268 CNS
K-562 leukemia = tested on: K-562 leukemia
HCT-15 colon = tested on: HCT-15 colon
SK-MEL-2 melanoma = tested on: SK-MEL-2 melanoma
OVCAR-8 ovarian = tested on: OVCAR-8 ovarian
SF-539 CNS = tested on: SF-539 CNS
U251 CNS = tested on: U251 CNS
A498 renal = tested on: A498 renal
ACHN renal = tested on: ACHN renal
M14 melanoma = tested on: M14 melanoma
DU-145 prostate = tested on: DU-145 prostate
MDA-MB-468 breast = tested on: MDA-MB-468 breast
IGROV1 ovarian = tested on: IGROV1 ovarian
SNB-19 CNS = tested on: SNB-19 CNS
NCI-H522 lung = tested on: NCI-H522 lung
SR leukemia = tested on: SR leukemia
HOP-62 NSCLC = tested on: HOP-62 NSCLC
MDA-MB-231 breast = tested on: MDA-MB-231 breast
SNB-75 CNS = tested on: SNB-75 CNS
NCI-H460 lung = tested on: NCI-H460 lung
UACC-62 melanoma = tested on: UACC-62 melanoma
UO-31 renal = tested on: UO-31 renal
A549 NSCLC = tested on: A549 NSCLC
MCF7 breast = tested on: MCF7 breast
KM12 colon = tested on: KM12 colon
NCI-H23 lung = tested on: NCI-H23 lung
EKVX NSCLC = tested on: EKVX NSCLC
RPMI-8226 leukemia = tested on: RPMI-8226 leukemia
SW-620 colon = tested on: SW-620 colon
CAKI-1 renal = tested on: CAKI-1 renal
NCI/ADR-RES ovarian = tested on: NCI/ADR-RES ovarian
SK-OV-3 ovarian = tested on: SK-OV-3 ovarian
OVCAR-3 ovarian = tested on: OVCAR-3 ovarian
MOLT-4 leukemia = tested on: MOLT-4 leukemia
HT29 colon = tested on: HT29 colon
MDA-MB-435 = tested on: MDA-MB-435
TK-10 renal = tested on: TK-10 renal
CCRF-CEM leukemia = tested on: CCRF-CEM leukemia
PC-3 prostate = tested on: PC-3 prostate

SMILES: Nc1nnc(-c2c[nH]c3ncc(Br)cc23)c(-c2c[nH]c3ccc(Br)cc23)n1
- GI50 (786-0 renal): 8.24 µM
- TGI (786-0 renal): 23.2 µM
- GI50 (SK-MEL-28 melanoma): 10.5 µM
- TGI (SK-MEL-28 melanoma): 24.4 µM
- GI50 (SK-MEL-5 melanoma): 3.06 µM
- TGI (SK-MEL-5 melanoma): 13.9 µM
- GI50 (SN12C renal): 7.31 µM
- TGI (SN12C renal): 23.6 µM
- GI50 (UACC-257 melanoma): 12.4 µM
- TGI (UACC-257 melanoma): 29.7 µM
- GI50 (BT-549 breast): 2.71 µM
- TGI (BT-549 breast): 12 µM
- GI50 (HCT-116 colon): 3.82 µM
- TGI (HCT-116 colon): 18.9 µM
- GI50 (T-47D breast): 4.16 µM
- TGI (T-47D breast): 26.2 µM
- GI50 (LOX IMVI melanoma): 5.39 µM
- TGI (LOX IMVI melanoma): 23.3 µM
- GI50 (MALME-3M melanoma): 4.61 µM
- TGI (MALME-3M melanoma): 25.8 µM
- GI50 (COLO 205 colon): 3.35 µM
- TGI (COLO 205 colon): 14.9 µM
- GI50 (HL-60(TB) leukemia): 1.99 µM
- TGI (HL-60(TB) leukemia): 16.3 µM
- GI50 (HS 578T breast): 4.47 µM
- TGI (HS 578T breast): 28.8 µM
- GI50 (NCI-H226 lung): 3.77 µM
- TGI (NCI-H226 lung): 26.9 µM
- GI50 (SF-295 CNS): 5.4 µM
- TGI (SF-295 CNS): 20.8 µM
- GI50 (HOP-92 NSCLC): 4.06 µM
- TGI (HOP-92 NSCLC): 24.3 µM
- GI50 (OVCAR-4 ovarian): 5.78 µM
- TGI (OVCAR-4 ovarian): 21.7 µM
- GI50 (HCC-2998 colon): 14 µM
- TGI (HCC-2998 colon): 28.9 µM
- GI50 (RXF 393 renal): 1.78 µM
- TGI (RXF 393 renal): 7.03 µM
- GI50 (OVCAR-5 ovarian): 10.8 µM
- TGI (OVCAR-5 ovarian): 27.3 µM
- GI50 (SF-268 CNS): 8.72 µM
- TGI (SF-268 CNS): 34 µM
- GI50 (K-562 leukemia): 0.497 µM
- TGI (K-562 leukemia): 16.8 µM
- GI50 (HCT-15 colon): 4.41 µM
- TGI (HCT-15 colon): 19.1 µM
- GI50 (SK-MEL-2 melanoma): 6.31 µM
- TGI (SK-MEL-2 melanoma): 23.1 µM
- GI50 (OVCAR-8 ovarian): 10.4 µM
- TGI (OVCAR-8 ovarian): 30.4 µM
- GI50 (SF-539 CNS): 3.48 µM
- TGI (SF-539 CNS): 17.2 µM
- GI50 (U251 CNS): 10.1 µM
- TGI (U251 CNS): 29.7 µM
- GI50 (A498 renal): 13.7 µM
- TGI (A498 renal): 29 µM
- GI50 (ACHN renal): 6.04 µM
- TGI (ACHN renal): 19.6 µM
- GI50 (M14 melanoma): 4.67 µM
- TGI (M14 melanoma): 22.2 µM
- GI50 (DU-145 prostate): 7.24 µM
- TGI (DU-145 prostate): 21.1 µM
- GI50 (MDA-MB-468 breast): 1.57 µM
- TGI (MDA-MB-468 breast): 8.83 µM
- GI50 (IGROV1 ovarian): 6.29 µM
- TGI (IGROV1 ovarian): 24.4 µM
- GI50 (SNB-19 CNS): 10.9 µM
- TGI (SNB-19 CNS): 33.7 µM
- GI50 (NCI-H522 lung): 0.403 µM
- TGI (NCI-H522 lung): 15.3 µM
- GI50 (SR leukemia): 0.378 µM
- TGI (SR leukemia): 14.8 µM
- GI50 (HOP-62 NSCLC): 5.26 µM
- TGI (HOP-62 NSCLC): 20.2 µM
- GI50 (MDA-MB-231 breast): 13.1 µM
- TGI (MDA-MB-231 breast): 32.5 µM
- GI50 (SNB-75 CNS): 1.56 µM
- TGI (SNB-75 CNS): 8.26 µM
- GI50 (NCI-H460 lung): 5.14 µM
- TGI (NCI-H460 lung): 24.4 µM
- GI50 (UACC-62 melanoma): 3.79 µM
- TGI (UACC-62 melanoma): 18.8 µM
- GI50 (UO-31 renal): 4.58 µM
- TGI (UO-31 renal): 20.7 µM
- GI50 (A549 NSCLC): 10.9 µM
- TGI (A549 NSCLC): 44.5 µM
- GI50 (MCF7 breast): 0.92 µM
- TGI (MCF7 breast): 18.5 µM
- GI50 (KM12 colon): 6.18 µM
- TGI (KM12 colon): 23.6 µM
- GI50 (NCI-H23 lung): 11.3 µM
- TGI (NCI-H23 lung): 26.2 µM
- GI50 (EKVX NSCLC): 10.2 µM
- TGI (EKVX NSCLC): 26.3 µM
- GI50 (RPMI-8226 leukemia): 4.68 µM
- TGI (RPMI-8226 leukemia): 50.4 µM
- GI50 (SW-620 colon): 5.32 µM
- TGI (SW-620 colon): 27.2 µM
- GI50 (CAKI-1 renal): 4.02 µM
- TGI (CAKI-1 renal): 17.9 µM
- GI50 (NCI/ADR-RES ovarian): 13.4 µM
- TGI (NCI/ADR-RES ovarian): 36.4 µM
- GI50 (SK-OV-3 ovarian): 10.6 µM
- TGI (SK-OV-3 ovarian): 24.4 µM
- GI50 (OVCAR-3 ovarian): 3 µM
- TGI (OVCAR-3 ovarian): 12.7 µM
- GI50 (MOLT-4 leukemia): 1.89 µM
- TGI (MOLT-4 leukemia): 12.7 µM
- GI50 (HT29 colon): 5.74 µM
- TGI (HT29 colon): 26 µM
- GI50 (MDA-MB-435): 0.379 µM
- TGI (MDA-MB-435): 16.1 µM
- GI50 (TK-10 renal): 15.1 µM
- TGI (TK-10 renal): 33.5 µM
- GI50 (CCRF-CEM leukemia): 2.33 µM
- TGI (CCRF-CEM leukemia): > 100 µM
- GI50 (PC-3 prostate): 3.6 µM
- TGI (PC-3 prostate): 22.4 µM
